Experimental data: ChEMBL document CHEMBL2203210, “SAR and in vivo evaluation of 4-aryl-2-aminoalkylpyrimidines as potent and selective Janus kinase 2 (JAK2) inhibitors” (Bioorg Med Chem Lett, 2012)

Columns and labels:
Cytochrome P450 2C9 = Cytochrome P450 2C9 (Homo sapiens, UniProt P11712); test: Inhibition of CYP2C9; assay type: ADME
[1] = Half life in cynomolgus monkey at 3 mg/kg, iv; assay type: ADME, organism-based, Macaca fascicularis; parameters: dose 3 mg/kg, route intravenous; settings: in vivo
[2] = Half life in CD rat at 5 mg/kg, iv; assay type: ADME, organism-based; parameters: dose 5 mg/kg, route intravenous; settings: in vivo
Mus musculus [3] = test: Volume of distribution in athymic nude mouse at 10 mg/kg, po and iv; assay type: ADME, organism-based; parameters: dose 10 mg/kg, route oral; settings: in vivo
[4] = Drug uptake in nude mouse xenografted with HEL 92.1.7 cells at 300 mg/kg, po after 4 hrs; assay type: ADME, organism-based; parameters: dose 300 mg/kg, route oral; settings: in vivo, read-out: Drug uptake
[5] = Half life in Beagle dog at 3 mg/kg, iv; assay type: ADME, organism-based, Canis lupus familiaris; parameters: dose 3 mg/kg, route intravenous; settings: in vivo
[6] = Cmax in cynomolgus monkey at 3 mg/kg, po; assay type: ADME, organism-based, Macaca fascicularis; parameters: dose 3 mg/kg, route oral; settings: in vivo
[7] = Metabolic stability in mouse liver microsomes assessed as compound remaining after 30 mins; assay type: ADME, Microsome; settings: read-out: Stability
Cytochrome P450 2D6 = Cytochrome P450 2D6 (Homo sapiens, UniProt P10635); test: Inhibition of CYP2D6; assay type: ADME
Sequence of Cytochrome P450 2D6 (P10635 whole entry): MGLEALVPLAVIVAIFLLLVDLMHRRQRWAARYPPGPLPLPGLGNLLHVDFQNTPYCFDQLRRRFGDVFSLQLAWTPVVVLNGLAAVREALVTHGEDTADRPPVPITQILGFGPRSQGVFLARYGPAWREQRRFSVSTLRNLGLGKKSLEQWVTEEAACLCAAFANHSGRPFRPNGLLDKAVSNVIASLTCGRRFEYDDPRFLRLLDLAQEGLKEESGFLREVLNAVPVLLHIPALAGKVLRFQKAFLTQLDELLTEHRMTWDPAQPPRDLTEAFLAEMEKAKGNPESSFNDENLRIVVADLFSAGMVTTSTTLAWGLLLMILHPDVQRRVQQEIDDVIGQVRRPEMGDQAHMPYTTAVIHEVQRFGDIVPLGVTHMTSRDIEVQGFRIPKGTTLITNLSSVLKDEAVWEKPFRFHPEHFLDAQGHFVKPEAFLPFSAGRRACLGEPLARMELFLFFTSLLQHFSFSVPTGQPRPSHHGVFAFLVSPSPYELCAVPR

[8] = Oral bioavailability in CD rat at 5 mg/kg; assay type: ADME, organism-based; settings: in vivo
Cynomolgus monkey [9] = test: Dose normalized AUC in cynomolgus monkey at 3 mg/kg, iv; assay type: ADME, organism-based, Macaca fascicularis; parameters: dose 3 mg/kg, route intravenous; settings: in vivo
Rattus norvegicus [10] = test: Dose normalized AUC in CD rat at 5 mg/kg, po; assay type: ADME, organism-based; parameters: dose 5 mg/kg, route oral; settings: in vivo
[11] = Plasma concentration in nude mouse xenografted with HEL 92.1.7 cells at 30 mg/kg, po after 4 hrs; assay type: ADME, organism-based; parameters: dose 30 mg/kg, route oral
[12] = Cmax in CD rat at 5 mg/kg, po; assay type: ADME, organism-based; parameters: dose 5 mg/kg, route oral; settings: in vivo
Mus musculus [13] = test: Inhibition of JAK2 in HEL 92.1.7 cells xenografted in nude mouse assessed as inhibition of STAT1 phosphorylation at 300 mg/kg, po after 4 hrs relative to vehicle-treated control; assay type: functional
[14] = Half life in CD rat at 5 mg/kg, po; assay type: ADME, organism-based; parameters: dose 5 mg/kg, route oral; settings: in vivo
Rattus norvegicus [15] = test: Volume of distribution in CD rat at 5 mg/kg, po and iv; assay type: ADME, organism-based; parameters: dose 5 mg/kg, route oral; settings: in vivo
[16] = Cmax in Beagle dog at 3 mg/kg, po; assay type: ADME, organism-based, Canis lupus familiaris; parameters: dose 3 mg/kg, route oral; settings: in vivo
Canis familiaris [17] = test: Dose normalized AUC in Beagle dog at 3 mg/kg, iv; assay type: ADME, organism-based, Canis lupus familiaris; parameters: dose 3 mg/kg, route intravenous; settings: in vivo
Mus musculus [18] = test: Inhibition of JAK2 in HEL 92.1.7 cells xenografted in nude mouse assessed as inhibition of STAT1 phosphorylation at 100 mg/kg, po after 4 hrs relative to vehicle-treated control; assay type: functional
Mus musculus [19] = test: Inhibition of JAK2 in HEL 92.1.7 cells xenografted in nude mouse assessed as inhibition of STAT3 phosphorylation at 300 mg/kg, po after 4 hrs relative to vehicle-treated control; assay type: functional
[20] = target: Vascular endothelial growth factor receptor 1 (Homo sapiens, UniProt P17948); test: Inhibition of FLT1
Cynomolgus monkey [21] = test: Dose normalized AUC in cynomolgus monkey at 3 mg/kg, po; assay type: ADME, organism-based, Macaca fascicularis; parameters: dose 3 mg/kg, route oral; settings: in vivo
[22] = Plasma concentration in nude mouse xenografted with HEL 92.1.7 cells at 100 mg/kg, po after 4 hrs; assay type: ADME, organism-based; parameters: dose 100 mg/kg, route oral
[23] = Cmax in CD rat at 5 mg/kg, iv; assay type: ADME, organism-based; parameters: dose 5 mg/kg, route intravenous; settings: in vivo
[24] = target: Receptor-type tyrosine-protein kinase FLT3 (Homo sapiens, UniProt P36888); test: Inhibition of FLT3
[25] = Drug uptake in nude mouse xenografted with HEL 92.1.7 cells at 30 mg/kg, po after 4 hrs; assay type: ADME, organism-based; parameters: dose 30 mg/kg, route oral; settings: in vivo, read-out: Drug uptake
[26] = Half life in Beagle dog at 3 mg/kg, po; assay type: ADME, organism-based, Canis lupus familiaris; parameters: dose 3 mg/kg, route oral; settings: in vivo
Mus musculus [27] = test: Inhibition of JAK2 in HEL 92.1.7 cells xenografted in nude mouse assessed as inhibition of STAT3 phosphorylation at 30 mg/kg, po after 4 hrs relative to vehicle-treated control; assay type: functional
[28] = Cmax in athymic nude mouse at 10 mg/kg, po; assay type: ADME, organism-based; parameters: dose 10 mg/kg, route oral; settings: in vivo
Mus musculus [29] = test: Inhibition of JAK2 in HEL 92.1.7 cells xenografted in nude mouse assessed as inhibition of STAT1 phosphorylation at 30 mg/kg, po after 4 hrs relative to vehicle-treated control; assay type: functional
[30] = Drug uptake in nude mouse xenografted with HEL 92.1.7 cells at 100 mg/kg, po after 4 hrs; assay type: ADME, organism-based; parameters: dose 100 mg/kg, route oral; settings: in vivo, read-out: Drug uptake
[31] = target: Platelet-derived growth factor receptor beta (Homo sapiens, UniProt P09619); test: Inhibition of PDGFRB
Mus musculus [32] = test: Inhibition of JAK2 in HEL 92.1.7 cells xenografted in po dosed nude mouse assessed as inhibition of STAT1 phosphorylation after 4 hrs; assay type: functional, organism-based
[33] = Half life in athymic nude mouse at 10 mg/kg, iv; assay type: ADME, organism-based; parameters: dose 10 mg/kg, route intravenous; settings: in vivo
[34] = target: Mitogen-activated protein kinase kinase kinase 9 (Homo sapiens, UniProt P80192); test: Inhibition of MLK1
Sequence of Mitogen-activated protein kinase kinase kinase 9 (P80192 whole entry): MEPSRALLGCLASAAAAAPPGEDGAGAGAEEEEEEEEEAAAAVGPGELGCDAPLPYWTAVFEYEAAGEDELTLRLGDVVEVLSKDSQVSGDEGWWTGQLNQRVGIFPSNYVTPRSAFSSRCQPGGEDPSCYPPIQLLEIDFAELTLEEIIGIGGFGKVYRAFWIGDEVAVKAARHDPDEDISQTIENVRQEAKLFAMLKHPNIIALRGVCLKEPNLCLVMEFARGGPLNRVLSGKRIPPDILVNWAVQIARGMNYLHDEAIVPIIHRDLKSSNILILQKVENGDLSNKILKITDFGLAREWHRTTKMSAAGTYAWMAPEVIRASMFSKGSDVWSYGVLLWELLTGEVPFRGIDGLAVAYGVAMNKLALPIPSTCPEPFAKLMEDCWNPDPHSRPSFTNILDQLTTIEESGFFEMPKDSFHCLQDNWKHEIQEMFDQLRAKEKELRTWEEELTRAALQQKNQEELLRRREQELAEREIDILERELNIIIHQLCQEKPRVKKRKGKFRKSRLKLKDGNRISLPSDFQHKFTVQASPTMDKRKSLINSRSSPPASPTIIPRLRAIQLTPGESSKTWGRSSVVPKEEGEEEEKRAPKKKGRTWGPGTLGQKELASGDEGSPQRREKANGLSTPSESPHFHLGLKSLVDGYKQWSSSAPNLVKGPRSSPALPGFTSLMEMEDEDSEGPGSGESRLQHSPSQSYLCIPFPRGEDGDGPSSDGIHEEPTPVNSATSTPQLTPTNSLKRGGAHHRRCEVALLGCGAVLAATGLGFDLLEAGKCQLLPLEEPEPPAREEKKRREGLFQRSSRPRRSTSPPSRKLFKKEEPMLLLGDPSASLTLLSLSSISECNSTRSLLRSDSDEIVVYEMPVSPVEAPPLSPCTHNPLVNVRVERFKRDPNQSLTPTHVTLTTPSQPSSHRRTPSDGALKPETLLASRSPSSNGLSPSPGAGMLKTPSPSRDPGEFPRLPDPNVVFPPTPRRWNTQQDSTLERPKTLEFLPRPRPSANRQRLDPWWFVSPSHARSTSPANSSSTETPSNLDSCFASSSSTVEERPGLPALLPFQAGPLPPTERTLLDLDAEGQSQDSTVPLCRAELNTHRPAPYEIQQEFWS

HEL [35] = test: Anitumour activity against HEL 92.1.7 cells xenografted in nude mouse assessed as tumor growth inhibition at 300 mg/kg, po bid administered up to 14 days relative to vehicle-treated control; assay type: functional, Homo sapiens; settings: 336 h, read-out: TGI
HEL [36] = test: Anitumour activity against HEL 92.1.7 cells xenografted in nude mouse assessed as tumor growth inhibition at 200 mg/kg, po bid administered up to 14 days relative to vehicle-treated control; assay type: functional, Homo sapiens; settings: 336 h, read-out: TGI
[37] = target: Tyrosine-protein kinase JAK1 (Homo sapiens, UniProt P23458); test: Inhibition of JAK1
Rattus norvegicus [38] = test: Dose normalized AUC in CD rat at 5 mg/kg, iv; assay type: ADME, organism-based; parameters: dose 5 mg/kg, route intravenous; settings: in vivo
[39] = Oral bioavailability in athymic nude mouse at 10 mg/kg; assay type: ADME, organism-based; settings: in vivo
[40] = Half life in cynomolgus monkey at 3 mg/kg, po; assay type: ADME, organism-based, Macaca fascicularis; parameters: dose 3 mg/kg, route oral; settings: in vivo
[41] = Plasma concentration in nude mouse xenografted with HEL 92.1.7 cells at 300 mg/kg, po after 4 hrs; assay type: ADME, organism-based; parameters: dose 300 mg/kg, route oral
[42] = target: Vascular endothelial growth factor receptor 3 (Homo sapiens, UniProt P35916); test: Inhibition of FLT4
Sequence of Vascular endothelial growth factor receptor 3 (P35916 whole entry): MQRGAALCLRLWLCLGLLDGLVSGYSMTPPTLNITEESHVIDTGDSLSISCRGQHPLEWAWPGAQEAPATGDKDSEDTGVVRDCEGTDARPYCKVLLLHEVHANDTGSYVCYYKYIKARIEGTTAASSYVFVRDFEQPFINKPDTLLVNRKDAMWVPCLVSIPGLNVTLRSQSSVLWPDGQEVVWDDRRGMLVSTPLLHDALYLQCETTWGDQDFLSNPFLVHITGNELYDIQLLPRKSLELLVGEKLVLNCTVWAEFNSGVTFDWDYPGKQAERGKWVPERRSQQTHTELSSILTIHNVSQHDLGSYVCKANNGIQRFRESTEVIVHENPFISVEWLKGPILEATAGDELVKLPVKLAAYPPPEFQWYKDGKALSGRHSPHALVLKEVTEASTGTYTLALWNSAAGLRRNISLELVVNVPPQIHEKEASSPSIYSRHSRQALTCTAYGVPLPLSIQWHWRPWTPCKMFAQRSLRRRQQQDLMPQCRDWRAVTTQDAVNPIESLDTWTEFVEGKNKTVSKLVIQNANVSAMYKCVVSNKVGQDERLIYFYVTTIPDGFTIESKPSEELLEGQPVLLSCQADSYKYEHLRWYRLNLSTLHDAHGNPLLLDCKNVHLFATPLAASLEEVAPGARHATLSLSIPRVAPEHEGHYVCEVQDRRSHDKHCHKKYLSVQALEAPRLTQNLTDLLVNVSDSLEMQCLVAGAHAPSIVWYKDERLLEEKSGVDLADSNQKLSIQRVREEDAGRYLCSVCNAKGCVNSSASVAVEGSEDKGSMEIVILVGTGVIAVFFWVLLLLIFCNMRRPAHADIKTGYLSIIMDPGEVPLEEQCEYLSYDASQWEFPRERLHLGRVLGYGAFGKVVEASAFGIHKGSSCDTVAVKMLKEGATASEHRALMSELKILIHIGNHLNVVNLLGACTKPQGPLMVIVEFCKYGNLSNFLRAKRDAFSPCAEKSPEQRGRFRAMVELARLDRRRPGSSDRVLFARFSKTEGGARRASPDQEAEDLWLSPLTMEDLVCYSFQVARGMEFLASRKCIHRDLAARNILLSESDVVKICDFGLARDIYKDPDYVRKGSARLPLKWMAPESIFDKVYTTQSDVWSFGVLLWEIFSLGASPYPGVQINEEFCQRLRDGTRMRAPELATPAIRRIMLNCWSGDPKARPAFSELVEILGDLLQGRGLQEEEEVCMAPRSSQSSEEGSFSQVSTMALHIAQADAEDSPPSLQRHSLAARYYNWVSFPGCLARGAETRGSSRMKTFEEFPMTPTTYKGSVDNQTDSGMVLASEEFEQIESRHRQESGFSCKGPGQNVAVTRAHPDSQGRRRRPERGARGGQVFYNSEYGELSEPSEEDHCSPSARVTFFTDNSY

Cytochrome P450 3A4 = Cytochrome P450 3A4 (Homo sapiens, UniProt P08684); test: Inhibition of CYP3A4; assay type: ADME
Cynomolgus monkey [43] = test: Volume of distribution in cynomolgus monkey at 3 mg/kg, po and iv; assay type: ADME, organism-based, Macaca fascicularis; parameters: dose 3 mg/kg, route oral; settings: in vivo
Canis familiaris [44] = test: Volume of distribution in Beagle dog at 3 mg/kg, po and iv; assay type: ADME, organism-based, Canis lupus familiaris; parameters: dose 3 mg/kg, route oral; settings: in vivo
HEL [45] = test: Induction of apoptosis in HEL 92.1.7 cells xenografted in nude mouse at 300 mg/kg, po bid relative to vehicle-treated control; assay type: functional, Homo sapiens
[46] = target: Mast/stem cell growth factor receptor Kit (Homo sapiens, UniProt P10721); test: Inhibition of c-KIT
Sequence of Mast/stem cell growth factor receptor Kit (P10721 whole entry): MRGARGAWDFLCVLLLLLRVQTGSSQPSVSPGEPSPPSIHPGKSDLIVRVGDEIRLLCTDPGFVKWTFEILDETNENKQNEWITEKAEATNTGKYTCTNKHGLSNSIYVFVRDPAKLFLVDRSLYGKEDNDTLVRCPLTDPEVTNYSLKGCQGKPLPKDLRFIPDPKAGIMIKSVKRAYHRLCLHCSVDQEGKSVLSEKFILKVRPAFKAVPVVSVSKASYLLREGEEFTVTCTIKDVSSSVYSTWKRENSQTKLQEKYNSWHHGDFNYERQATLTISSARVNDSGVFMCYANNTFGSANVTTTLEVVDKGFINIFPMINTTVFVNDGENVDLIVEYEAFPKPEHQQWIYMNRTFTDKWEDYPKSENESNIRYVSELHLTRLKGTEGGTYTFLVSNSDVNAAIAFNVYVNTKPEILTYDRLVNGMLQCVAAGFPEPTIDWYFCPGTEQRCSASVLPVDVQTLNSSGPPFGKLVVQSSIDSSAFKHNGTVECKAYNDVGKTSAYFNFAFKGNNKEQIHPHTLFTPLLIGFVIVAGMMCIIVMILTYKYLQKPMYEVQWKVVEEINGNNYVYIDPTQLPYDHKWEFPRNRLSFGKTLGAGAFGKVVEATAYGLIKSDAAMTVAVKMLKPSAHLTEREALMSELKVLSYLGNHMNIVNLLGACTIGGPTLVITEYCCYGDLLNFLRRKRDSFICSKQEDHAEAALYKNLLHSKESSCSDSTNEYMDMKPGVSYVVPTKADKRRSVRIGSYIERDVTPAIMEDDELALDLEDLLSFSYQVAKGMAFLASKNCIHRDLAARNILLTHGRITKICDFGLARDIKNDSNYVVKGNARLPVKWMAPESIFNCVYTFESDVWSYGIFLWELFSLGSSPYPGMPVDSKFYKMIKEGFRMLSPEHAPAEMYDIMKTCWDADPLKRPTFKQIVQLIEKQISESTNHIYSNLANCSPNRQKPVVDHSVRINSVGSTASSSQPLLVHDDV

[47] = Oral bioavailability in Beagle dog at 3 mg/kg; assay type: ADME, organism-based, Canis lupus familiaris; settings: in vivo
[48] = target: Voltage-gated inwardly rectifying potassium channel KCNH2 (Homo sapiens, UniProt Q12809); test: Inhibition of human ERG
Sequence of Voltage-gated inwardly rectifying potassium channel KCNH2 (Q12809 whole entry): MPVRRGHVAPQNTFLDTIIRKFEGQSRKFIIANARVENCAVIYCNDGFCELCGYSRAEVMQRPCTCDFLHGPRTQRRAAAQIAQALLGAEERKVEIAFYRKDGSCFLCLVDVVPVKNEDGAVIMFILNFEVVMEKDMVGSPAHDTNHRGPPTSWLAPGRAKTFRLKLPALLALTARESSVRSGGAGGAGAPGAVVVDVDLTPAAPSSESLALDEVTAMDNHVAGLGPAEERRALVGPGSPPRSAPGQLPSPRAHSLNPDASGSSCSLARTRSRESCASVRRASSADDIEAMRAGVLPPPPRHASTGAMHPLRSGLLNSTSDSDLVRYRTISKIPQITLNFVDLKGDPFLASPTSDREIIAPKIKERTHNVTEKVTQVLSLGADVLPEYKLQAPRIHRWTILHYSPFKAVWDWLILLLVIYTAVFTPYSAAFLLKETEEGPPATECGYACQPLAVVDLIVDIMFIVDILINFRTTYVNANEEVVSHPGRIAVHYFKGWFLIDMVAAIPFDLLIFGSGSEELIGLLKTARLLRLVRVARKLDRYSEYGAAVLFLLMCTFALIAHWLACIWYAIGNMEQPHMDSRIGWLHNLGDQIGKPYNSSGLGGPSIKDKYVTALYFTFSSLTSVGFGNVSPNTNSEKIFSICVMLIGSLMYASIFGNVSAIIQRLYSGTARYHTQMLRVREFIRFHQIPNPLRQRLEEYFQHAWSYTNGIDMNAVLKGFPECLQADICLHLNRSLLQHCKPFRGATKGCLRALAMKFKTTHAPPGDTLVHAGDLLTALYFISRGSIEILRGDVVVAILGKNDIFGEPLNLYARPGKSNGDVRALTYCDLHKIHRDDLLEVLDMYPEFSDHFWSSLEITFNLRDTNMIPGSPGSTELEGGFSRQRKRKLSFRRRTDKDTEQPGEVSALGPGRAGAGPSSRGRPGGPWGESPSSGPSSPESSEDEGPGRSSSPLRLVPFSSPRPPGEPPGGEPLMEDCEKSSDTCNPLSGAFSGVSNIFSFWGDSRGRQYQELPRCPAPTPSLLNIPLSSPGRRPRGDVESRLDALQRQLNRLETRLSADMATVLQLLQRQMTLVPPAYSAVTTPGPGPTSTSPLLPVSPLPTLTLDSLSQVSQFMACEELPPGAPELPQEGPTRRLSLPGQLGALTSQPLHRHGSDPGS

[49] = Cmax in Beagle dog at 3 mg/kg, iv; assay type: ADME, organism-based, Canis lupus familiaris; parameters: dose 3 mg/kg, route intravenous; settings: in vivo
[50] = target: Vascular endothelial growth factor receptor 2 (Homo sapiens, UniProt P35968); test: Inhibition of KDR
[51] = Half life in athymic nude mouse at 10 mg/kg, po; assay type: ADME, organism-based; parameters: dose 10 mg/kg, route oral; settings: in vivo

For `O=C(Nc1ccc(-c2ccnc(Nc3ccc(N4CCOCC4)cc3)n2)cc1)[C@H]1CCCN1`, the INH (Cytochrome P450 2C9) was “>= 20 uM”, the half-life [1] was 197 min and the half-life [2] was 187 min. The Vd (Mus musculus [3]) was 5.319 L/kg, the concentration at 4 h [4] was 62.4 µM and the half-life [5] was 360 min. The Cmax [6] was 490 nM, the remaining at 0.5 h [7] was 62% and the INH (Cytochrome P450 2D6) was “>= 20 uM”. The bioavailability [8] was 53.6%, the AUC/dose (Cynomolgus monkey [9]) was 1.76 µM·kg·h/mg and the AUC/dose (Rattus norvegicus [10]) was 8.54 µM·kg·h/mg. The concentration at 4 h [11] was 830 nM, the Cmax [12] was 3.53 µM and the inhibition in vivo at 300 mg/kg (Mus musculus [13]) was 88%. The half-life [14] was 194 min, the Vd (Rattus norvegicus [15]) was 0.666 L/kg and the Cmax [16] was 170 nM. It also gave an AUC/dose (Canis familiaris [17]) of 1.47 µM·kg·h/mg, an inhibition in vivo at 100 mg/kg (Mus musculus [18]) of 72% and an inhibition in vivo at 300 mg/kg (Mus musculus [19]) of 55%. It also gave an IC50 [20] of 910 nM, an AUC/dose (Cynomolgus monkey [21]) of 1.2 µM·kg·h/mg and a concentration at 4 h [22] of 5.35 µM. For the same compound, the Cmax [23] was 13 µM, the IC50 [24] was 140 nM and the concentration at 4 h [25] was 2000 nM. For the same compound, the half-life [26] was 304 min, the inhibition in vivo at 30 mg/kg (Mus musculus [27]) was 9% and the Cmax [28] was 570 nM. For the same compound, the inhibition in vivo at 30 mg/kg (Mus musculus [29]) was 41%, the concentration at 4 h [30] was 240 µM and the IC50 [31] was 125 nM. It also gave an IC50 (Mus musculus [32]) of 1390 nM, an ED50 (Mus musculus [32]; po) of 42 mg/kg and a half-life [33] of 67.8 min. It also gave an IC50 [34] of 370 nM, an inhibition in vivo at 300 mg/kg (HEL [35]) of 70% and an inhibition in vivo at 200 mg/kg (HEL [36]) of 60%. For the same compound, the IC50 [37] was 134 nM, the AUC/dose (Rattus norvegicus [38]) was 15.99 µM·kg·h/mg and the bioavailability [39] was 54.5%. It also gave a half-life [40] of 202 min, a concentration at 4 h [41] of 20.2 µM and an IC50 [42] of 555 nM. The INH (Cytochrome P450 3A4) was “>= 20 uM”, the Vd (Cynomolgus monkey [43]) was 6.739 L/kg and the Vd (Canis familiaris [44]) was 13.4 L/kg. The “fold change (FC)” value (HEL [45]) was 11.3, the IC50 [46] was 226 nM and the bioavailability [47] was 44.8%. The INH [48] was 16 µM, the Cmax [49] was 440 nM and the IC50 [50] was 484 nM. It also gave a half-life [51] of 116 min.
